Experiment in all cases: relative viability (nuclei count vs DMSO), 5 days (fraction); higher = more cells survive
Compound in the test “Elesclomol + Pictilisib”: CN(NC(=O)CC(=O)NN(C)C(=S)c1ccccc1)C(=S)c1ccccc1 [Elesclomol] + CS(=O)(=O)N1CCN(Cc2cc3nc(-c4cccc5[nH]ncc45)nc(N4CCOCC4)c3s2)CC1 [Pictilisib] (partner 1 µM)
Summed up:
(§1)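 Cells from lung cancer lines were seeded into 1536-well plates and, one day later, dosed by pin tool. Treatments were either a single drug or a fixed dose of an anchor drug with five library-drug doses (not always all listed) in √10 steps. After 5 days, nuclei were stained in a one-step fixation (final 0.05% Triton X-100, 1% formaldehyde, 1 ug/ml Hoechst) and counted on 4× images, and relative viability is the treated-to-vehicle nuclei ratio, as the median of duplicate plates.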

Compound in the test “Elesclomol + Palbociclib”: CN(NC(=O)CC(=O)NN(C)C(=S)c1ccccc1)C(=S)c1ccccc1 [Elesclomol] + CC(=O)c1c(C)c2cnc(Nc3ccc(N4CCNCC4)cn3)nc2n(C2CCCC2)c1=O [Palbociclib] (partner 0.5 µM)
The procedure, abridged:
as §1

Compound in the test “Elesclomol + Trametinib”: CN(NC(=O)CC(=O)NN(C)C(=S)c1ccccc1)C(=S)c1ccccc1 [Elesclomol] + CC(=O)Nc1cccc(-n2c(=O)n(C3CC3)c(=O)c3c(Nc4ccc(I)cc4F)n(C)c(=O)c(C)c32)c1 [Trametinib] (partner 0.02 µM)
Summed up: as §1

Compound in the test “Elesclomol + Lapatinib”: CN(NC(=O)CC(=O)NN(C)C(=S)c1ccccc1)C(=S)c1ccccc1 [Elesclomol] + CS(=O)(=O)CCNCc1ccc(-c2ccc3ncnc(Nc4ccc(OCc5cccc(F)c5)c(Cl)c4)c3c2)o1 [Lapatinib] (partner 2 µM)
Summed up: as §1

Compound in the test “Elesclomol + Luminespib”: CN(NC(=O)CC(=O)NN(C)C(=S)c1ccccc1)C(=S)c1ccccc1 [Elesclomol] + CCNC(=O)c1noc(-c2cc(C(C)C)c(O)cc2O)c1-c1ccc(CN2CCOCC2)cc1 [Luminespib] (partner 0.01 µM)
Summed up: as §1

As for PC-3 [JPC-3], the relative viability is 0.738 in the test with Elesclomol + Pictilisib (first compound 0.003162 µM); 0.604 with Elesclomol + Pictilisib (first compound 0.01 µM); 0.878 in the test with Elesclomol + Pictilisib (first compound 0.03162 µM); 0.581 in the test with Elesclomol + Pictilisib (first compound 0.1 µM); 0.609 with Elesclomol + Palbociclib (first compound 0.003162 µM); 0.495 in the test with Elesclomol + Palbociclib (first compound 0.01 µM). Further, the relative viability with Elesclomol + Palbociclib (first compound 0.03162 µM) came out at 0.456; with Elesclomol + Palbociclib (first compound 0.1 µM), 0.411; in the test with Elesclomol + Trametinib (first compound 0.003162 µM) it was 0.714; with Elesclomol + Trametinib (first compound 0.01 µM) it was 0.473; in the test with Elesclomol + Trametinib (first compound 0.03162 µM), 0.435; in the test with Elesclomol + Trametinib (first compound 0.1 µM), 0.5. Besides, the relative viability in the test with Elesclomol + Lapatinib (first compound 0.003162 µM) is 0.43; in the test with Elesclomol + Lapatinib (first compound 0.01 µM), 0.386; with Elesclomol + Lapatinib (first compound 0.03162 µM), 0.519; in the test with Elesclomol + Lapatinib (first compound 0.1 µM) it was 0.405; with Elesclomol + Luminespib (first compound 0.003162 µM), 0.706; with Elesclomol + Luminespib (first compound 0.01 µM), 0.612. Further, the relative viability was found to be 0.701 with Elesclomol + Luminespib (first compound 0.03162 µM) and 0.447 with Elesclomol + Luminespib (first compound 0.1 µM).
Turning to PC-14, the relative viability was found to be 0.417 in the test with Elesclomol + Pictilisib (first compound 0.003162 µM); 0.0984 with Elesclomol + Pictilisib (first compound 0.01 µM); 0.05 with Elesclomol + Pictilisib (first compound 0.03162 µM); 0.0156 in the test with Elesclomol + Pictilisib (first compound 0.1 µM); 0.317 with Elesclomol + Palbociclib (first compound 0.003162 µM); 0.0274 in the test with Elesclomol + Palbociclib (first compound 0.01 µM). The relative viability came out at 0.02 with Elesclomol + Palbociclib (first compound 0.03162 µM); 0.0209 in the test with Elesclomol + Palbociclib (first compound 0.1 µM); 0.206 with Elesclomol + Trametinib (first compound 0.003162 µM); 0.0608 in the test with Elesclomol + Trametinib (first compound 0.01 µM); 0.0204 with Elesclomol + Trametinib (first compound 0.03162 µM); 0.0164 with Elesclomol + Trametinib (first compound 0.1 µM). The relative viability in the test with Elesclomol + Lapatinib (first compound 0.003162 µM) stood at 0.337; with Elesclomol + Lapatinib (first compound 0.01 µM), 0.295; in the test with Elesclomol + Lapatinib (first compound 0.03162 µM), 0.228; with Elesclomol + Lapatinib (first compound 0.1 µM), 0.0843; with Elesclomol + Luminespib (first compound 0.003162 µM), 0.11; with Elesclomol + Luminespib (first compound 0.01 µM) it was 0.0979. Further, the relative viability was 0.0814 with Elesclomol + Luminespib (first compound 0.03162 µM) and 0.0429 in the test with Elesclomol + Luminespib (first compound 0.1 µM).
In the case of RERF-LC-KJ, the relative viability with Elesclomol + Pictilisib (first compound 0.003162 µM) turned out to be 0.408; with Elesclomol + Pictilisib (first compound 0.01 µM), 0.19; with Elesclomol + Pictilisib (first compound 0.03162 µM) it was 0.243; in the test with Elesclomol + Pictilisib (first compound 0.1 µM), 0.234; in the test with Elesclomol + Palbociclib (first compound 0.003162 µM) it was 0.911; in the test with Elesclomol + Palbociclib (first compound 0.01 µM), 0.714. In addition, the relative viability was 0.581 in the test with Elesclomol + Palbociclib (first compound 0.03162 µM); 0.288 with Elesclomol + Palbociclib (first compound 0.1 µM); 0.753 with Elesclomol + Trametinib (first compound 0.003162 µM); 0.536 with Elesclomol + Trametinib (first compound 0.01 µM); 0.572 with Elesclomol + Trametinib (first compound 0.03162 µM); 0.28 with Elesclomol + Trametinib (first compound 0.1 µM). The relative viability turned out to be 0.909 with Elesclomol + Lapatinib (first compound 0.003162 µM); 0.756 with Elesclomol + Lapatinib (first compound 0.01 µM); 0.398 with Elesclomol + Lapatinib (first compound 0.03162 µM); 0.299 with Elesclomol + Lapatinib (first compound 0.1 µM); 0.656 with Elesclomol + Luminespib (first compound 0.003162 µM); 0.418 in the test with Elesclomol + Luminespib (first compound 0.01 µM). Also, the figures for the relative viability with Elesclomol + Luminespib (first compound 0.03162 µM) and in the test with Elesclomol + Luminespib (first compound 0.1 µM) were 0.34 and 0.457, respectively.
Consider SK-LU-1, for which the relative viability with Elesclomol + Pictilisib (first compound 0.003162 µM) turned out to be 0.55; with Elesclomol + Pictilisib (first compound 0.01 µM), 0.469; in the test with Elesclomol + Pictilisib (first compound 0.03162 µM), 0.319; with Elesclomol + Pictilisib (first compound 0.1 µM), 0.178; with Elesclomol + Palbociclib (first compound 0.003162 µM), 0.35; in the test with Elesclomol + Palbociclib (first compound 0.01 µM) it was 0.305. Further, the relative viability in the test with Elesclomol + Palbociclib (first compound 0.03162 µM) turned out to be 0.344; with Elesclomol + Palbociclib (first compound 0.1 µM), 0.388; with Elesclomol + Trametinib (first compound 0.003162 µM), 0.517; with Elesclomol + Trametinib (first compound 0.01 µM), 0.316; with Elesclomol + Trametinib (first compound 0.03162 µM), 0.287; with Elesclomol + Trametinib (first compound 0.1 µM) it was 0.338. The relative viability stood at 0.908 in the test with Elesclomol + Lapatinib (first compound 0.003162 µM); 0.518 in the test with Elesclomol + Lapatinib (first compound 0.01 µM); 0.333 with Elesclomol + Lapatinib (first compound 0.03162 µM); 0.105 with Elesclomol + Lapatinib (first compound 0.1 µM); 0.206 in the test with Elesclomol + Luminespib (first compound 0.003162 µM); 0.193 with Elesclomol + Luminespib (first compound 0.01 µM). The results for the relative viability with Elesclomol + Luminespib (first compound 0.03162 µM) and with Elesclomol + Luminespib (first compound 0.1 µM) were 0.158 and 0.124, respectively.
Consider SK-MES-1, for which the relative viability with Elesclomol + Pictilisib (first compound 0.003162 µM) is 0.402; with Elesclomol + Pictilisib (first compound 0.01 µM), 0.312; in the test with Elesclomol + Pictilisib (first compound 0.03162 µM), 0.238; in the test with Elesclomol + Pictilisib (first compound 0.1 µM), 0.199; in the test with Elesclomol + Palbociclib (first compound 0.003162 µM), 0.325; with Elesclomol + Palbociclib (first compound 0.01 µM), 0.291. Further, the relative viability with Elesclomol + Palbociclib (first compound 0.03162 µM) is 0.221; in the test with Elesclomol + Palbociclib (first compound 0.1 µM), 0.184; in the test with Elesclomol + Trametinib (first compound 0.003162 µM) it was 0.584; with Elesclomol + Trametinib (first compound 0.01 µM) it was 0.635; with Elesclomol + Trametinib (first compound 0.03162 µM), 0.501; with Elesclomol + Trametinib (first compound 0.1 µM), 0.415. Besides, the relative viability in the test with Elesclomol + Lapatinib (first compound 0.003162 µM) was determined as 0.563; with Elesclomol + Lapatinib (first compound 0.01 µM) it was 0.446; with Elesclomol + Lapatinib (first compound 0.03162 µM) it was 0.429; with Elesclomol + Lapatinib (first compound 0.1 µM), 0.325; with Elesclomol + Luminespib (first compound 0.003162 µM) it was 0.922; in the test with Elesclomol + Luminespib (first compound 0.01 µM) it was 0.713. The results for the relative viability with Elesclomol + Luminespib (first compound 0.03162 µM) and with Elesclomol + Luminespib (first compound 0.1 µM) were 0.274 and 0.295, respectively.
Regarding SW 1573, the relative viability with Elesclomol + Pictilisib (first compound 0.003162 µM) stood at 0.479; with Elesclomol + Pictilisib (first compound 0.01 µM), 0.121; in the test with Elesclomol + Pictilisib (first compound 0.03162 µM), 0.104; in the test with Elesclomol + Pictilisib (first compound 0.1 µM) it was 0.074; in the test with Elesclomol + Palbociclib (first compound 0.003162 µM), 0.269; in the test with Elesclomol + Palbociclib (first compound 0.01 µM) it was 0.104. For the same cell line, the relative viability with Elesclomol + Palbociclib (first compound 0.03162 µM) came to 0.0985; with Elesclomol + Palbociclib (first compound 0.1 µM), 0.0326; with Elesclomol + Trametinib (first compound 0.003162 µM), 0.192; in the test with Elesclomol + Trametinib (first compound 0.01 µM), 0.115; in the test with Elesclomol + Trametinib (first compound 0.03162 µM), 0.0701; in the test with Elesclomol + Trametinib (first compound 0.1 µM), 0.0281. Further, the relative viability in the test with Elesclomol + Lapatinib (first compound 0.003162 µM) worked out at 1.04; with Elesclomol + Lapatinib (first compound 0.01 µM), 0.517; in the test with Elesclomol + Lapatinib (first compound 0.03162 µM), 0.185; with Elesclomol + Lapatinib (first compound 0.1 µM) it was 0.135; with Elesclomol + Luminespib (first compound 0.003162 µM), 0.154; in the test with Elesclomol + Luminespib (first compound 0.01 µM), 0.0972. The results for the relative viability in the test with Elesclomol + Luminespib (first compound 0.03162 µM) and in the test with Elesclomol + Luminespib (first compound 0.1 µM) were 0.0704 and 0.0142, respectively.
In the case of UMC-11, the relative viability with Elesclomol + Pictilisib (first compound 0.003162 µM) was 0.827; with Elesclomol + Pictilisib (first compound 0.01 µM) it was 0.67; in the test with Elesclomol + Pictilisib (first compound 0.03162 µM), 0.561; with Elesclomol + Pictilisib (first compound 0.1 µM) it was 0.44; in the test with Elesclomol + Palbociclib (first compound 0.003162 µM) it was 0.321; with Elesclomol + Palbociclib (first compound 0.01 µM), 0.275. Moreover, the relative viability with Elesclomol + Palbociclib (first compound 0.03162 µM) was 0.29; with Elesclomol + Palbociclib (first compound 0.1 µM) it was 0.249; in the test with Elesclomol + Trametinib (first compound 0.003162 µM), 0.703; in the test with Elesclomol + Trametinib (first compound 0.01 µM), 0.653; with Elesclomol + Trametinib (first compound 0.03162 µM) it was 0.407; in the test with Elesclomol + Trametinib (first compound 0.1 µM), 0.369. The relative viability in the test with Elesclomol + Lapatinib (first compound 0.003162 µM) came to 0.952; with Elesclomol + Lapatinib (first compound 0.01 µM) it was 0.837; in the test with Elesclomol + Lapatinib (first compound 0.03162 µM) it was 0.505; in the test with Elesclomol + Lapatinib (first compound 0.1 µM), 0.328; in the test with Elesclomol + Luminespib (first compound 0.003162 µM) it was 1.04; in the test with Elesclomol + Luminespib (first compound 0.01 µM), 1.02. The relative viability with Elesclomol + Luminespib (first compound 0.03162 µM) amounted to 0.604; with Elesclomol + Luminespib (first compound 0.1 µM) it was 0.413.

The values above are taken from the supplement of paper PMC10307832.
